Laboratory results taken from article PMC11420954, “Structural and Functional Basis of GenB2 Isomerase Activity from Gentamicin Biosynthesis” (ACS Chemical Biology, 2024).
Each block holds one molecule with its values, some of them ahead of it.

Assays:
GenB2 [1] = biological target: T1, GenB2 (Micromonospora echinospora, UniProt Q70KE6); assay: X-ray crystal structure of the complex; conditions: ternary complex with PMP; substrate-binding site; at least 100 mM ligand, pH 6.0, 18 °C
T1 construct: gene gacE; full length in pET28a, E. coli BL21(DE3), nickel IMAC and gel filtration; plasmid carries an extra 57 nucleotides at the 5' end; homodimer

GenB2 [2] = biological target: T1, GenB2; assay: epimerisation to gentamicin C2, HPLC; format: biochemical; conditions: 200 μM substrate, 20 μM enzyme, 50 mM Tris-HCl pH 8.0, 30 °C, overnight
GenB2 [3] = biological target: T1, GenB2; assay: X-ray crystal structure of the holo enzyme; format: binding; conditions: copurified; coenzyme site at the dimer interface, no Schiff base with Lys227; pH 6.0
[4] = biological target: GenB2 (Micromonospora echinospora); assay: crystal structure; holo GenB2 (PMP) and its complexes with G418 or gentamicin X2; space group C222(1), a single protomer in the asymmetric unit, dimer obtained by a symmetry operation; 0.1 M PIPES pH 6.0, 1 M NaCl, 29% PEG 4000, 30% 6-aminohexanoic acid, 18 °C
[5] = biological target: GenB2 (Micromonospora echinospora); assay: not stated; GenB2 in solution; the method is not told
GenB2 [6] = biological target: T1, GenB2; assay: epimerisation to gentamicin C2a, HPLC; format: biochemical; conditions: 200 μM substrate, 20 μM enzyme, 50 mM Tris-HCl pH 8.0, 30 °C, overnight

T1 sequence (Q70KE6 entry or part of it): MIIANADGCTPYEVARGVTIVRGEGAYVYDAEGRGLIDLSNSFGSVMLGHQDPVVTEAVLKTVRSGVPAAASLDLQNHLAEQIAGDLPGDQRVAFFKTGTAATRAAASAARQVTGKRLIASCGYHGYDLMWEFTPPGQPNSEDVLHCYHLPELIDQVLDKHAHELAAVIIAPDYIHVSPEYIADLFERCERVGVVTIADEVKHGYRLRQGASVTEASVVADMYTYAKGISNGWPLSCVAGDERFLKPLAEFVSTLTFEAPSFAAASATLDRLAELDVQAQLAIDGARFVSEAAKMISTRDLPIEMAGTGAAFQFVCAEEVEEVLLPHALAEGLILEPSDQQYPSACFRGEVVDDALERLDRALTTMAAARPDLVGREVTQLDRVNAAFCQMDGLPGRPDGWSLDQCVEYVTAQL

Molecule: CN[C@@H]1[C@@H](O)[C@@H](O[C@@H]2[C@@H](O)[C@H](O[C@H]3O[C@H](CO)[C@@H](O)[C@H](O)[C@H]3N)[C@@H](N)C[C@H]2N)OC[C@]1(C)O (stereo in doubt) [gentamicin X2]
X-ray crystal structure of the complex (GenB2 [1]): we have obtained the structure of GenB2 in complex with gentamicin G418 and gentamicin X2

Molecule: CN[C@@H]1[C@@H](O)[C@@H](O[C@@H]2[C@@H](O)[C@H](O[C@H]3O[C@H]([C@H](C)N)CC[C@H]3N)[C@@H](N)C[C@H]2N)OC[C@]1(C)O [gentamicin C2a]
epimerisation to gentamicin C2, HPLC (GenB2 [2]): wild-type GenB2 was able to perform a high ratio of conversion

Molecule: Cc1ncc(COP(=O)(O)O)c(CN)c1O [pyridoxamine 5-phosphate]
X-ray crystal structure of the holo enzyme (GenB2 [3]): Each dimer of GenB2 has two PMP molecules bound at the interfaces between the protomers

stoichiometry N [4]: 2 | stoichiometry N [5]: 2
Molecule: GenB2 (enzyme)

Molecule: CN[C@@H]1[C@@H](O)[C@@H](O[C@@H]2[C@@H](O)[C@H](O[C@H]3O[C@H]([C@@H](C)N)CC[C@H]3N)[C@@H](N)C[C@H]2N)OC[C@]1(C)O [gentamicin C2]
epimerisation to gentamicin C2a, HPLC (GenB2 [6]): conversion of gentamicin C2 into C2a or C2a into C2
